Results: US20230123334A1, “AMINO LIPID COMPOUND, PREPARATION METHOD THEREFOR, AND APPLICATION THEREOF” (SHENZHEN SHENXIN BIOTECHNOLOGY CO., LTD., priority 2020, published 2023)

What was measured:
HEK293 cells [1] = assay: Preliminary screening as DNA vectors, GFP transfection of HEK293 cells; type: cell-based; conditions: HEK293 cells; lipid/DOPE liposome with 75 ng plasmid DNA (psin-EGFP-IRES-Puro); number of cells expressing GFP divided by total number of nuclei (Hoechst)
Method in brief: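 HEK293 cells in DMEM/10% FBS transfected with 75 ng EGFP plasmid per well complexed with amino lipid/DOPE liposomes in pH 5.6 sodium acetate. Hoechst nuclear stain added 20-24 h post-transfection, then cells cultured another 20-24 h. Confocal imaging gives GFP-positive cells as % of total nuclei.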

HEK293 cells [2] = assay: Preliminary screening as mRNA vectors, EGFP mRNA transfection of HEK293 cells; type: cell-based; conditions: HEK293 cells, 96-well plates, EGFP mRNA 50 ng per well; percentage of GFP fluorescent cells relative to total number of cells (Hoechst)
Method in brief: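 HEK293 cells in DMEM plus 10% FBS transfected in 96-well format with 50 ng EGFP mRNA per well; Lipofectamine2000 served as positive control. Read-out is the percentage of GFP-fluorescent cells among total cells, counted by Hoechst nuclear stain.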

Row | SMILES | Absolute DNA transfection efficiency in HEK293 cells (HEK293 cells [1]) [%] | Absolute mRNA transfection efficiency in HEK293 cells (HEK293 cells [2]) [%]
1 | CCCCCCCCCCCCCNc1nc(NCCCCCCCCCCCC)nc(NCCN(C)C)n1 [Compound N12N13D1] | 1.2 | 1.6
2 | CCCCCCCCCCCCCNc1nc(NCCCCCCCCCCCC)nc(NCCN2CCOCC2)n1 [Compound N12N13D2] | 0.1 | 0.0
3 | CCCCCCCCCCCCCNc1nc(NCCCCCCCCCCCC)nc(NCCN2CCCC2)n1 [Compound N12N13D3] | 1.7 | 3.1
4 | CCCCCCCCCCCCCNc1nc(NCCCCCCCCCCCC)nc(NCCN2CCCCC2)n1 [Compound N12N13D4] | 0.0 | 0.0
5 | CCCCCCCCCCCCCNc1nc(NCCCCCCCCCCCC)nc(NCCN2CCN(C)CC2)n1 [Compound N12N13D5] | 0.3 | 0.0
6 | CCCCCCCCCCCCCNc1nc(NCCCCCCCCCCCC)nc(NCCCN(C)C)n1 [Compound N12N13D6] | 0.5 | 1.0
7 | CCCCCCCCCCCCCNc1nc(NCCCCCCCCCCCC)nc(NCCN(CC)CC)n1 [Compound N12N13D7] | 0.2 | 0.3
8 | CCCCCCCCCCCCCNc1nc(NCCCCCCCCCCCC)nc(NCCCN2CCOCC2)n1 [Compound N12N13D8] | 0.3 | 0.0
9 | CCCCCCCCCCCCCNc1nc(NCCCCCCCCCCCC)nc(NCCCN2CCN(C)CC2)n1 [Compound N12N13D9] | 0.3 | 1.8
10 | CCCCCCCCCCCCCNc1nc(NCCCCCCCCCCCC)nc(NCC2CCN(C)CC2)n1 [Compound N12N13D10] | 0.2 | 0.2
11 | CCCCCCCCCCCCCCCNc1nc(NCCCCCCCCCCCC)nc(NCCN(C)C)n1 [Compound N12N15D1] | 1.5 | 1.0
12 | CCCCCCCCCCCCCCCNc1nc(NCCCCCCCCCCCC)nc(NCCN2CCOCC2)n1 [Compound N12N15D2] | 0.3 | 0.4
13 | CCCCCCCCCCCCCCCNc1nc(NCCCCCCCCCCCC)nc(NCCN2CCCC2)n1 [Compound N12N15D3] | 1.1 | 6.5
14 | CCCCCCCCCCCCCCCNc1nc(NCCCCCCCCCCCC)nc(NCCN2CCCCC2)n1 [Compound N12N15D4] | 1.4 | 1.3
15 | CCCCCCCCCCCCCCCNc1nc(NCCCCCCCCCCCC)nc(NCCN2CCN(C)CC2)n1 [Compound N12N15D5] | 0.4 | 3.1
16 | CCCCCCCCCCCCCCCNc1nc(NCCCCCCCCCCCC)nc(NCCCN(C)C)n1 [Compound N12N15D6] | 0.9 | 2.3
17 | CCCCCCCCCCCCCCCNc1nc(NCCCCCCCCCCCC)nc(NCCN(CC)CC)n1 [Compound N12N15D7] | 0.8 | 1.4
18 | CCCCCCCCCCCCCCCNc1nc(NCCCCCCCCCCCC)nc(NCCCN2CCOCC2)n1 [Compound N12N15D8] | 1.4 | 0.9
19 | CCCCCCCCCCCCCCCNc1nc(NCCCCCCCCCCCC)nc(NCCCN2CCN(C)CC2)n1 [Compound N12N15D9] | 1.5 | 0.9
20 | CCCCCCCCCCCCCCCNc1nc(NCCCCCCCCCCCC)nc(NCC2CCN(C)CC2)n1 [Compound N12N15D10] | 0.7 | 1.2
21 | CCCCCCCCCCCCCCCCNc1nc(NCCCCCCCCCCCC)nc(NCCN(C)C)n1 [Compound N12N16D1] | 2.6 | 4.4
22 | CCCCCCCCCCCCCCCCNc1nc(NCCCCCCCCCCCC)nc(NCCN2CCOCC2)n1 [Compound N12N16D2] | 0.9 | 0.0
23 | CCCCCCCCCCCCCCCCNc1nc(NCCCCCCCCCCCC)nc(NCCN2CCCC2)n1 [Compound N12N16D3] | 1.2 | 3.3
24 | CCCCCCCCCCCCCCCCNc1nc(NCCCCCCCCCCCC)nc(NCCN2CCCCC2)n1 [Compound N12N16D4] | 1.2 | 0.7

Row | SMILES | Absolute DNA transfection efficiency in HEK293 cells (HEK293 cells [1]) [%] | Absolute mRNA transfection efficiency in HEK293 cells (HEK293 cells [2]) [%]
25 | CCCCCCCCCCCCCCCCNc1nc(NCCCCCCCCCCCC)nc(NCCN2CCN(C)CC2)n1 [Compound N12N16D5] | 0.1 | 1.4
26 | CCCCCCCCCCCCCCCCNc1nc(NCCCCCCCCCCCC)nc(NCCCN(C)C)n1 [Compound N12N16D6] | 1.9 | 1.9
27 | CCCCCCCCCCCCCCCCNc1nc(NCCCCCCCCCCCC)nc(NCCN(CC)CC)n1 [Compound N12N16D7] | 0.4 | 0.3
28 | CCCCCCCCCCCCCCCCNc1nc(NCCCCCCCCCCCC)nc(NCCCN2CCOCC2)n1 [Compound N12N16D8] | 0.7 | 0.9
29 | CCCCCCCCCCCCCCCCNc1nc(NCCCCCCCCCCCC)nc(NCCCN2CCN(C)CC2)n1 [Compound N12N16D9] | 0.9 | 0.7
30 | CCCCCCCCCCCCCCCCNc1nc(NCCCCCCCCCCCC)nc(NCC2CCN(C)CC2)n1 [Compound N12N16D10] | 0.0 | 0.6
31 | CCCCCCCCCCCCCCCCCCNc1nc(NCCCCCCCCCCCC)nc(NCCN(C)C)n1 [Compound N12N18D1] | 1.4 | 9.4
32 | CCCCCCCCCCCCCCCCCCNc1nc(NCCCCCCCCCCCC)nc(NCCN2CCOCC2)n1 [Compound N12N18D2] | 0.6 | 0.9
33 | CCCCCCCCCCCCCCCCCCNc1nc(NCCCCCCCCCCCC)nc(NCCN2CCCC2)n1 [Compound N12N18D3] | 3.5 | 13.4
34 | CCCCCCCCCCCCCCCCCCNc1nc(NCCCCCCCCCCCC)nc(NCCN2CCCCC2)n1 [Compound N12N18D4] | 0.9 | 1.9
35 | CCCCCCCCCCCCCCCCCCNc1nc(NCCCCCCCCCCCC)nc(NCCN2CCN(C)CC2)n1 [Compound N12N18D5] | 0.0 | 1.9
36 | CCCCCCCCCCCCCCCCCCNc1nc(NCCCCCCCCCCCC)nc(NCCCN(C)C)n1 [Compound N12N18D6] | 1.5 | 4.8
37 | CCCCCCCCCCCCCCCCCCNc1nc(NCCCCCCCCCCCC)nc(NCCN(CC)CC)n1 [Compound N12N18D7] | 1.2 | 1.4
38 | CCCCCCCCCCCCCCCCCCNc1nc(NCCCCCCCCCCCC)nc(NCCCN2CCOCC2)n1 [Compound N12N18D8] | 1.5 | 0.5
39 | CCCCCCCCCCCCCCCCCCNc1nc(NCCCCCCCCCCCC)nc(NCCCN2CCN(C)CC2)n1 [Compound N12N18D9] | 0.1 | 0.7
40 | CCCCCCCCCCCCCCCCCCNc1nc(NCCCCCCCCCCCC)nc(NCC2CCN(C)CC2)n1 [Compound N12N18D10] | 0.0 | 1.0
41 | CCCCCCCCCCCCCNc1nc(NCCCCCCCCCCCCC)nc(NCCN(C)C)n1 [Compound N13N13D1] | 1.5 | 0.4
42 | CCCCCCCCCCCCCNc1nc(NCCCCCCCCCCCCC)nc(NCCN2CCOCC2)n1 [Compound N13N13D2] | 0.0 | 0.9
43 | CCCCCCCCCCCCCNc1nc(NCCCCCCCCCCCCC)nc(NCCN2CCCC2)n1 [Compound N13N13D3] | 0.7 | 3.5
44 | CCCCCCCCCCCCCNc1nc(NCCCCCCCCCCCCC)nc(NCCN2CCCCC2)n1 [Compound N13N13D4] | 1.5 | 3.3
45 | CCCCCCCCCCCCCNc1nc(NCCCCCCCCCCCCC)nc(NCCN2CCN(C)CC2)n1 [Compound N13N13D5] | 0.9 | 1.7
46 | CCCCCCCCCCCCCNc1nc(NCCCCCCCCCCCCC)nc(NCCCN(C)C)n1 [Compound N13N13D6] | 2.5 | 0.2
47 | CCCCCCCCCCCCCNc1nc(NCCCCCCCCCCCCC)nc(NCCN(CC)CC)n1 [Compound N13N13D7] | 0.1 | 1.1
